Laboratory results: patent US9399037B2, “Triazinone compounds for treating diseases resulting from infestation with parasitic protozoans” (Bayer Intellectual Property GmbH, priority 1999, dated 2016)
Several values for one entry are separate records, joined by “and”; a condition that tells them apart may be missing. Equal entries are not always repeated. Where two headings read alike, the source gives them in different places.

Tests used:
Neospora caninum [1] = assay: Testing substances on infected Neospora caninum cell cultures (VERO cell monolayer, microscopical assessment); assay type: cell-based; set-up: key: 0 = no effect; 1 = some effect; 2 = full action; T = cytotoxic; details: 4 days after beginning of treatment, 5 days post-infection
Protocol: Neospora caninum is an obligatory intracellular parasite. VERO cells (African green monkey kidney cells, ATCC No.: CCL 81 Vero) were used as an aid to cause the parasite to reproduce under conditions capable of standardization and definition. Vero cells were grown in the following medium: 87% […] (ICN, 12-602-54) 10% FCS (fetal calf serum, ICN, 29-101-49) 1% 200 mM L-glutamine (ICN, 15-801-13) 1% sodium bicarbonate (ICN, 16-883-49) 1% penicillin/streptomycin (ICN, 16-700-49). Noninfected cultures were maintained and passaged in 25 cm^2 (Falcon, B 769031) and 75 cm^2 (Falcon, B 769051) tissue culture flasks. Vero cells were grown at 37° C. in a 5% CO2 atmosphere in a CO2 incubator (Heraeus) until a cell monolayer was obtained.
The following Neospora caninum isolates were used for the infection of cell cultures: NC-1 (canine isolate DUBEY (1988) and NC Swe B-1/9th passage (bovine isolate; National Veterinary Institute Uppsala, Sweden). The infection materials used were infected cell cultures from the nitrogen storage (see above) or purified tachyzoites of infected cultures (see below).
Neospora caninum was isolated from infected VERO or ED monolayers under sterile conditions. First, infected cell cultures were detached from the flask bottom using a spatula (Tec No Mara, 3010) and, using a 23-gauge cannula (Luer 23 Gx1, 0.6×25 mm) drawn into a 10 ml disposable syringe. During this procedure, host cells and tissue cysts contained therein were destroyed mechanically. The cell suspension was subsequently centrifuged for 7 minutes at 1 500 rpm (Varifuge 3.0, Heraeus), the supernatant was discarded, and the sample pellet was resuspended in precisely 2.5 ml of physiological phosphate buffer (PBS: 1 mM PO4, 12 mM NaCl, 0.87 mM KCL, pH 7.4). The next isolation step was performed using a Sephadex column (PD-10™/Sephadex G-25 M, Pharmacia Biotech, 17-0851). The column was first equilibrated with 25 ml of PBS, the sample volume was applied in 2.5 ml of PBS, and elution was then effected with 5 ml of PBS. […]

Neospora caninum [2] = assay: Anti-N. caninum total IgG in the serum by ELISA, prophylactically treated infected mice; assay type: in vivo
Protocol: (§1) Female Wt C57BL/6-mice, age at the time of treatment: 7½ weeks.
(§2) Neospora caninum tachyzoites were passaged through VERO cells, and isolated by column chromatography, and aliquots with concentrations of 2×10^6 parasites/100 μl were prepared in sterile PBS.
(§3) Pure toltrazuril active compound was made up as a stock solution with 50 mg/10 ml H2O+100 μl Cremophor. 0.5 mg of pure active compound were present Der application in 0.1 ml of this solution. In a mouse of 20 g, this corresponds to a use concentration of 25 mg/kg. The substances were administered perorally by gavage on 6 successive days, which corresponds to a total uptake of […].
(§4) Toltrazuril 2.5% formulated solution (100 ml solution contain: 2.50 g toltrazuril, 30.00 g triethanolamine, 80.70 g polyethylene glycol; the components are simply mixed): 6.25 ml of the 2.5% solution were diluted in 250 ml of water and administered to the mice on 6 successive days via the drinking water.
(§5) Four hours after the start of the prophylactic treatment, each mouse was infected with 2×10^6 parasite stages/100 μl sterile PBS.
(§6) 14 days post-infection, the test mice were sacrificed using CO2. They were numbered randomly to maintain a random sequence during evaluation (blind evaluation). To obtain serum, blood was taken from the myocardium. The brain was dissected carefully, and one half was stored at −80° C. for the PCR analysis. The remainder was fixed in 4% paraformaldehyde/PBS for immunohistological studies (IFAT).
Anti-N. caninum total immunoglobulin G (IgG) was determined by ELISA following the method of Eperon et al., 1999, Parasite Immunology 21:225-236. Treated groups were compared with an uninfected and an infected control group. The positive control mouse was inoculated with a crude extract of N. caninum tachyzoites and subsequently infected with 10^6 N. caninum stages. The parasite-specific IgG values were particularly high in this mouse.

Neospora caninum [3] = assay: Neospora caninum-specific PCR on brain DNA of infected mice; assay type: in vivo; details: prophylactic treatment, pure active compound 25 mg/kg/day p.o.
Protocol: as §1, §2, §3, §4, §5
as §6, with “The remainder was fixed in 4% paraformaldehyde/PBS for immunohistological studies (IFAT).” left out

Neospora caninum [4] = assay: Immunofluorescence test (IFAT) on brain sections of infected mice; assay type: in vivo; set-up: key: Score (−)=no tachyzoites; Score (+)=less than 10 tachyzoites; Score (++)=between 10 and 200 tachyzoites; Score (+++)=more than 200 parasites; details: brain sections of individual mice; 25 mg/kg/day p.o. on 6 successive days; day 14 p.i.
Protocol: as §1, §2, §3, §4, §5
14 days post-infection, the test mice were sacrificed using CO2. They were numbered randomly to maintain a random sequence during evaluation (blind evaluation). […]
The entire sections were studied for the assessment. Any stages of the parasite present were counted, and the following scores were used: […]

Neospora caninum [5] = details: dogs; treatment with sulfadiazine and clindamycin together; cited from earlier work
Neospora caninum [6] = details: experimentally infected mice, administered via the drinking water, cited from earlier work

Row | SMILES | Efficacy against Neospora caninum in VERO cells (assessment of monolayer) (Neospora caninum [1]; 10 ppm) | Efficacy against Neospora caninum in VERO cells (assessment of monolayer) (Neospora caninum [1]; 25 ppm) | Efficacy against Neospora caninum in VERO cells (assessment of monolayer) (Neospora caninum [1]; 50 ppm) | OD mean (anti Neospora IgG in the serum) (Neospora caninum [2]; group mean, 7 mice, 25 mg/kg/day p.o. on 6 successive days, day 14 p.i.) | OD (anti Neospora IgG in the serum) (Neospora caninum [2]; individual C57BL/6 mice, 25 mg/kg/day p.o. on 6 successive days from 4 h before infection, day 14 p.i., 25 mg/kg/day) | concentration of Neospora caninum-specific IgG antibodies compared with infected and untreated control groups (Neospora caninum [2]; mice, pure active compound 25 mg/kg/day p.o.) | mice PCR-negative in the group (Neospora caninum [3]) | IFAT (Neospora caninum [4]) | success of treatment (Neospora caninum [5]) | effectiveness of treatment (Neospora caninum [6]; later start of the treatment) | effectiveness of treatment (Neospora caninum [6]; start prior to infection, clinical symptoms prevented without parasitological recovery)
1 | Cc1cc(-n2c(=O)[nH]c(=O)n(C)c2=O)ccc1Oc1ccc(SC(F)(F)F)cc1 [Toltrazuril, toltrazuril] | 1 | 2 | 2 | 0.1689 | 0.338 and 0.271 and 0.056 and 0.066 and 0.18 and 0.103 and 0.168 | reduced concentration | 4/7 | − |  |  | 
2 | Nc1ccc(S(=O)(=O)Nc2ncccn2)cc1 [sulfadiazine] |  |  |  |  |  |  |  |  | only has a chance of success when it starts very early | without success | only effective when the treatment was started prophylactically
